In this assay the test system is PC-12. Kind of assay: Neuritogenic activity of compound in PC12 rat pheochromocytoma cells was evaluated at dose of 20 uM; Positive neurite initiation after 16 hour incubation. The assay is classed as functional.

Results on one compound are retold here after ChEMBL document CHEMBL1147424, “TMC-95A, a reversible proteasome inhibitor, induces neurite outgrowth in PC12 cells” (2004).

For the compound `C/C=C\NC(=O)C1NC(=O)[C@H](CC(N)=O)NC(=O)[C@@H](NC(=O)C(=O)[C@@H](C)CC)Cc2ccc(O)c(c2)-c2cccc3c2NC(=O)[C@@]3(O)[C@@H]1O` (stereo partly specified), the Activity stood at 60%.
